The text below walks through data of patent US20230111853A1, “COMPOUNDS MODULATING PROTEIN RECRUITMENT AND/OR DEGRADATION” (Orionis Biosciences, Inc., priority 2019, published 2023).

pEC50, pIC50: −log10 of the molar value. Where two headings read alike, the source gives them in different places.

By pIC50 is commonly meant the negative decadic logarithm of the IC50, by convention in mol/L.

Assay [1] deals with T1, IKZF1 (isoform 7) recruitment to CRBN (Homo sapiens, UniProt Q96SW2).
T1 construct: Full size proteins were fused for each of the target proteins tested, except in the case of IKZF1 where isoform 7 was used; expressed in transfected cells; host or cells: HEK293T
Briefly: Recruitment Assay (MAPPIT-like): IKZF1 recruitment to CRBN. In kind it is cell-based. The conditions noted are these: HEK293T cells; pSEL-CRBN+pMG1-IKZF1(isoform 7); luciferase 24 hours after treatment; read-out: EC50_IKZF1. The protocol: (§1) In this experimental set-up, cells were transfected with a construct encoding a CRBN-fusion protein and another one encoding a substrate-fusion protein. Test compound activity was assessed with increasing concentrations of test compounds (dose-response studies) to monitor the ability to promote CRBN-ligand-induced protein interaction.
(§2) Full size proteins were fused for each of the target proteins tested, except in the case of IKZF1 where isoform 7 was used. For the study, the following were used: IKZF1 recruitment: pSEL-CRBN+pMG1-IKZF1(isoform 7); ASS1 recruitment: pSEL-CRBN+pMG1-ASS1. SALL4 recruitment: pSEL-SALL4+pMG1-CRBN. […] Luciferase activity was measured 24 hours after test compound treatment using the Luciferase Assay System kit (PROMEGA, Madison, Wis.) with an Ensight plate reader (PERKIN ELMER LIFE SCIENCES, Waltham, Mass.). Data points depicted fold induction of the average luciferase activity of triplicate samples from EPO+test compound treated cells versus EPO only treated cells. Error bars represent standard deviations. Curves were fit using 4-parameter nonlinear regression in […] PRISM software.

The next assay has as its target T2, ASS1 recruitment to CRBN (Homo sapiens, UniProt Q96SW2).
T2 construct: Full size proteins were fused for each of the target proteins tested, except in the case of IKZF1 where isoform 7 was used; expressed in transfected cells; host or cells: HEK293T
Briefly: Recruitment Assay (MAPPIT-like): ASS1 recruitment to CRBN. The class given is cell-based. Conditions: HEK293T cells; pSEL-CRBN+pMG1-ASS1; luciferase 24 hours after treatment; read-out: EC50_ASS1. The protocol:
as §1, §2

Assay [2] has as its target T3, SALL4 recruitment to CRBN (Homo sapiens, UniProt Q96SW2).
T3 construct: Full size proteins were fused for each of the target proteins tested, except in the case of IKZF1 where isoform 7 was used; expressed in transfected cells; host or cells: HEK293T
The experiment in a line: Recruitment Assay (MAPPIT-like): SALL4 recruitment to CRBN. The class given is cell-based. Conditions: HEK293T cells; pSEL-SALL4+pMG1-CRBN; luciferase 24 hours after treatment; read-out: EC50_SALL4. The protocol:
as §1, §2

Assay [3] has as its system IKZF1, ASS1 and SALL4 recruitment to CRBN. Briefly: Recruitment assessment: recruitment of any tested substrate from among IKZF1, ASS1 and SALL4. In kind it is cell-based. Conditions: any tested substrate at any tested compound concentration.
Another assay concerns the target CRBN (Homo sapiens, UniProt Q96SW2). Briefly: Competition Assay (MAPPIT-like, competition with trimethoprim-lenalidomide hybrid ligand for binding to CRBN in cells).
Setting [4] is: read-out: IC50 Competition, HEK293T cells, competition with 300 nM trimethoprim-lenalidomide hybrid ligand, luciferase 24 hours after compound treatment.

For the compound `Cc1cccc2nnn(C3CCC(=O)NC3=O)c(=O)c12` (centres unmarked) [C13247, 3-(5-methyl-4-oxo-1,2,3-benzotriazin-3-yl)piperidine-2,6-dione], the figures for the pEC50 (in assay [1]; on ASS1 recruitment to CRBN; in assay [2]) were 5.54, 5.07 and 6.40, respectively. Also, the “Recruitment Assessment” value in assay [3] is on record as “TRUE”.

Take `O=C1CCC(N2Cc3c(cccc3-c3ccccc3)C2=O)C(=O)N1` (centres unmarked) [C48014, 3-(1-oxo-4-phenyl-isoindolin-2-yl)piperidine-2,6-dione]: the pEC50 was 5.91 in assay [1], 6.04 on ASS1 recruitment to CRBN and 7.21 in assay [2]. For the same compound, in assay [3], the “Recruitment Assessment” value is recorded as “TRUE”.

Regarding `CC1c2ccccc2C(=O)N1C1CCC(=O)NC1=O` (centres unmarked) [C51383, 3-(1-methyl-3-oxo-isoindolin-2-yl)piperidine-2,6-dione], the pEC50 in assay [1] is 5.82; at ASS1 recruitment to CRBN, 5.77; in assay [2], 7.23. Besides, the “Recruitment Assessment” value in assay [3] is listed as “TRUE”.

On to `O=C1CCC(N2Cc3c(ccc4c3OCO4)C2=O)C(=O)N1` (centres unmarked) [C67858, 3-(6-oxo-8H-[1,3]dioxolo[4,5-e]isoindol-7-yl)piperidine-2,6-dione], for which the figures for the pEC50 (in assay [1]; at ASS1 recruitment to CRBN; in assay [2]) were 6.24, 6.05 and 7.53, respectively. Also, the “Recruitment Assessment” value in assay [3] was “TRUE”.

`O=C1CCC(N2Cc3ccc(NCC(=O)Nc4ccccc4)cc3C2=O)C(=O)N1` (centres unmarked) [C84965, 2-[[2-(2,6-dioxo-3-piperidyl)-3-oxo-isoindolin-5-yl]amino]-N-phenyl-acetamide]: in assay [3], the “Recruitment Assessment” value is recorded as “TRUE”. Moreover, the pIC50 on CRBN (setting [4]) is 6.70.

With `Cc1ccc2c(c1)C(=O)N(c1c(C(C)C)cccc1C(C)C)C2=O` [5HPP-33, 2-(2,6-diisopropylphenyl)-5-methyl-isoindoline-1,3-dione, reference compound], the “Recruitment Assessment” value in assay [3] is on record as “FALSE”. The pIC50 at CRBN (setting [4]) was 5.29.

On to `O=C1CCC(n2nnc3ccccc3c2=O)C(=O)N1` (centres unmarked) [C21223, 3-(4-oxo-1,2,3-benzotriazin-3-yl)piperidine-2,6-dione], for which, in assay [2], the pEC50 is 6.29. Further, in assay [3], the “Recruitment Assessment” value is “TRUE”. The same compound had a pIC50 on CRBN of 5.65.

On to `Cc1ccc2c(c1)CN(C1CCC(=O)NC1=O)C2=O` (centres unmarked) [C28577, 3-(5-methyl-1-oxo-isoindolin-2-yl)piperidine-2,6-dione], for which the pEC50 is 5.79 in assay [1], 6.19 at ASS1 recruitment to CRBN and more than 7.86 in assay [2]. For the same compound, the “Recruitment Assessment” value in assay [3] is recorded as “TRUE”.

As to `O=C1CC/C(=C/c2ccccc2)C(=O)N1` [C68121, (3Z)-3-benzylidenepiperidine-2,6-dione], in assay [3], the “Recruitment Assessment” value was “FALSE”. In addition, on CRBN (setting [4]), the pIC50 was 5.19.

Take `Cc1ccc(NC(=O)NCc2ccc3c(c2)CN(C2CCC(=O)NC2=O)C3=O)cc1Cl` (centres unmarked) [CC-885, 1-(3-chloro-4-methyl-phenyl)-3-[[2-(2,6-dioxo-3-piperidyl)-1-oxo-isoindolin-5-yl]methyl]urea, reference compound]: the pEC50 is more than 7.86 in assay [1] and 7.10 on ASS1 recruitment to CRBN. Further, the “Recruitment Assessment” value in assay [3] is reported as “TRUE”.

In the case of `Cc1cccc2c1CN(C1CCC(=O)NC1=O)C2=O` (centres unmarked) [C28558, 3-(4-methyl-1-oxo-isoindolin-2-yl)piperidine-2,6-dione], the pEC50 was 7.11 in assay [1], 6.43 on ASS1 recruitment to CRBN and more than 7.86 in assay [2]. Further, the “Recruitment Assessment” value in assay [3] is given as “TRUE”.

With `Nc1cccc2nnn(C3CCC(=O)NC3=O)c(=O)c12` (centres unmarked) [C59904, 3-(5-amino-4-oxo-1,2,3-benzotriazin-3-yl)piperidine-2,6-dione], the pEC50 was 6.91 in assay [1], 6.16 at ASS1 recruitment to CRBN and 6.48 in assay [2]. Further, in assay [3], the “Recruitment Assessment” value is recorded as “TRUE”.

`O=C1CCC(N2C(=O)C3CCCCC3C2=O)C(=O)N1` (centres unmarked) [C24191, 2-(2,6-dioxo-3-piperidyl)-3a,4,5,6,7,7a-hexahydroisoindole-1,3-dione]: the “Recruitment Assessment” value in assay [3] was “FALSE”. Also, on CRBN (setting [4]), the pIC50 is 4.75.

As to `O=C1CCC(N2Cc3cc(NCCNC(=O)Nc4ccccc4)ccc3C2=O)C(=O)N1` (centres unmarked) [C35751, 1-[2-[[2-(2,6-dioxo-3-piperidyl)-1-oxo-isoindolin-5-yl]amino]ethyl]-3-phenyl-urea], the pEC50 is 5.84 at ASS1 recruitment to CRBN and 6.63 in assay [2]. The “Recruitment Assessment” value in assay [3] is listed as “TRUE”.

With `O=C1CCC(N2Cc3cc(Nc4ncccn4)ccc3C2=O)C(=O)N1` (centres unmarked) [C80369, 3-[1-oxo-5-(pyrimidin-2-ylamino)isoindolin-2-yl]piperidine-2,6-dione], the pEC50 at ASS1 recruitment to CRBN is 5.89. Moreover, the “Recruitment Assessment” value in assay [3] is on record as “TRUE”.

`Cc1cccc2c(=O)n(C3CCC(=O)NC3=O)nnc12` (centres unmarked) [C35830, 3-(8-methyl-4-oxo-1,2,3-benzotriazin-3-yl)piperidine-2,6-dione]: the pEC50 is 5.25 at ASS1 recruitment to CRBN and 6.23 in assay [2]. In addition, in assay [3], the “Recruitment Assessment” value is on record as “TRUE”.

In the case of `O=C1CCC(N2Cc3c(Cl)cccc3C2=O)C(=O)N1` (centres unmarked) [C24031, 3-(4-chloro-1-oxo-isoindolin-2-yl)piperidine-2,6-dione], the values for the pEC50 (in assay [1]; on ASS1 recruitment to CRBN; in assay [2]) were 7.23, 6.59 and more than 7.86, respectively. The “Recruitment Assessment” value in assay [3] is given as “TRUE”.

Regarding `O=C1CCC(Nc2ncc3ccccc3n2)C(=O)N1` (centres unmarked) [C97402, 3-(quinazolin-2-ylamino)piperidine-2,6-dione], the “Recruitment Assessment” value in assay [3] is “FALSE”. Further, the pIC50 at CRBN (setting [4]) is 5.20.

Regarding `O=C1CCC(N2Cc3cc(Nc4ncc5c(n4)COC5)ccc3C2=O)C(=O)N1` (centres unmarked) [C80380, 3-[5-(5,7-dihydrofuro[3,4-d]pyrimidin-2-ylamino)-1-oxo-isoindolin-2-yl]piperidine-2,6-dione], the pEC50 in assay [1] was 5.75; in assay [2] it was 8.00. Moreover, the “Recruitment Assessment” value in assay [3] is listed as “TRUE”.

On to `N#Cc1ccc(Nc2ccc3c(c2)CN(C2CCC(=O)NC2=O)C3=O)nn1` (centres unmarked) [C80378, 6-[[2-(2,6-dioxo-3-piperidyl)-1-oxo-isoindolin-5-yl]amino] pyridazine-3-carbonitrile], for which the results for the pEC50 (on ASS1 recruitment to CRBN; in assay [2]) were 5.03 and 6.41, respectively. The “Recruitment Assessment” value in assay [3] was “TRUE”.

In the case of `N#Cc1ccc2c(c1)C(=O)N(C1CCC(=O)NC1=O)C2` (centres unmarked) [C48007, 2-(2,6-dioxo-3-piperidyl)-3-oxo-isoindoline-5-carbonitrile], the pEC50 was 5.79 in assay [1] and 6.37 in assay [2]. In assay [3], the “Recruitment Assessment” value is listed as “TRUE”.
